In PubChem BioAssay (NCI):
Where “and” joins values, the source holds several entries; their conditions need not be identical. Equal values may be shown once.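 96-well plates; 48 h exposure; 5 concentrations. Endpoints by linear interpolation between flanking doses. Not reached: highest tested concentration assigned. Here, GI50 denotes the concentration required for 50% inhibition of growth. TGI marks complete inhibition of growth.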

Key:
Test in all cases: NCI anticancer screen, dose series, 48 h
A549 NSCLC = test system: A549 NSCLC
CAKI-1 renal = test system: CAKI-1 renal
CCRF-CEM leukemia = test system: CCRF-CEM leukemia
COLO 205 colon = test system: COLO 205 colon
EKVX NSCLC = test system: EKVX NSCLC
K-562 leukemia = test system: K-562 leukemia
OVCAR-3 ovarian = test system: OVCAR-3 ovarian
SF-268 CNS = test system: SF-268 CNS
SF-295 CNS = test system: SF-295 CNS
SNB-19 CNS = test system: SNB-19 CNS

Row | Structure (SMILES) | TGI (A549 NSCLC) | TGI (CAKI-1 renal) | TGI (CCRF-CEM leukemia) | TGI (COLO 205 colon) | TGI (EKVX NSCLC) | TGI (K-562 leukemia) | TGI (OVCAR-3 ovarian) | TGI (SF-268 CNS) | TGI (SF-295 CNS) | TGI (SNB-19 CNS) | GI50 (A549 NSCLC) | GI50 (CAKI-1 renal) | GI50 (CCRF-CEM leukemia) | GI50 (COLO 205 colon) | GI50 (EKVX NSCLC) | GI50 (K-562 leukemia) | GI50 (OVCAR-3 ovarian) | GI50 (SF-268 CNS) | GI50 (SF-295 CNS) | GI50 (SNB-19 CNS)
1 | Cc1ccc(C)c(NC(=O)CCc2n[nH]c(=S)o2)c1 | > 100 µM | > 100 µM | > 100 µM | > 100 µM | > 100 µM | > 100 µM | > 100 µM | > 100 µM | > 100 µM | > 100 µM | – | – | – | – | – | – | – | – | – | –
2 | Cn1cc(/C=C2\C(=O)Nc3cccnc32)c2ccccc21 | > 25 µM | > 25 µM | > 25 µM | > 25 µM | > 25 µM | > 25 µM | > 25 µM | > 25 µM | > 25 µM | > 25 µM | 11.8 µM | 10.2 µM | 16 µM | 20.6 µM | 11.1 µM | > 18.4 µM | > 22.5 µM | > 21.7 µM | > 25 µM | > 25 µM
3 | C1CCN2CC34CC(CC5CCCN(C6CCCC3N6)C54)C2C1 (stereo not drawn) | > 100 µM | > 100 µM | > 100 µM | > 100 µM | > 100 µM | > 100 µM | > 100 µM | > 100 µM | > 100 µM | > 100 µM | – | – | – | – | – | – | – | – | – | –
4 | COS(=O)CCOC(=O)c1ccccc1SSc1ccccc1C(=O)OCCS(=O)OC (stereo not drawn) | > 100 µM | 73.1 µM | > 100 µM | 49.1 µM | > 100 µM | 69.6 µM | 54.5 µM | > 100 µM | > 100 µM | > 100 µM | – | – | – | – | – | – | – | – | – | –
5 | C[Si](C)(C)[C@@]1([Se]c2ccccc2)CC[C@@H]1C(=O)c1ccccc1 | > 100 µM | > 100 µM | > 100 µM | > 100 µM | > 100 µM | > 100 µM | > 100 µM | > 100 µM | > 100 µM | > 100 µM | – | – | – | – | – | – | – | – | – | –
6 | CC(C)(C)c1ccc(C(O)(c2ccc(C(C)(C)C)cc2)c2ccc(C(C)(C)C)cc2)cc1 | > 100 µM | > 100 µM | > 100 µM | > 100 µM | > 100 µM | > 100 µM | > 100 µM | > 100 µM | > 100 µM | > 100 µM | – | – | – | – | – | – | – | – | – | –
7 | COc1ccccc1OCC(COC(=O)Nc1ccc(C)cc1)OC(=O)Nc1ccc(C)cc1 (stereo not drawn) | > 100 µM | 34.3 µM | 45.3 µM | 32.4 µM | 65.8 µM | 45.5 µM | 33.9 µM | 46.2 µM | 49 µM | 46.7 µM | – | – | – | – | – | – | – | – | – | –
8 | C[C@H]1CC(=O)[C@@]2(O)C#C/C=C\C#C[C@@H]3Nc4c(cc(O)c5c4C(=O)c4ccccc4C5=O)[C@]24O[C@]314 | 0.82 µM | 0.0597 µM and 0.0512 µM | – | 0.342 µM | 0.885 µM and 1.4 µM | 0.233 µM and 0.605 µM | > 25 µM | 0.0897 µM and 0.543 µM | 0.0542 µM | 0.172 µM | – | 0.0025 µM | 0.0025 µM | – | 0.292 µM | – | – | 0.00599 µM | 0.0025 µM | –
9 | Fc1cc(Nc2ccc3c(OCCCN4CCOCC4)cccc3n2)ccc1Cl | 8.47 µM | 5.1 µM | 8.66 µM | 3.43 µM | 6.2 µM | 4.38 µM | 10.1 µM | 17 µM | 3.96 µM | 5.29 µM | 2.96 µM | 1.89 µM | 2.48 µM | 1.82 µM | 2.37 µM | 1.91 µM | 3.08 µM | 3.13 µM | 1.97 µM | 2.21 µM
10 | COc1cc(C(=O)c2c(-c3ccccc3)oc3ccccc23)cc(OC)c1O | > 100 µM | 16 µM | 14.3 µM | 43.3 µM | 58.2 µM | 44.5 µM | 5.21 µM | 18.6 µM | 6.94 µM | 21.7 µM | 4.41 µM | 0.766 µM | 1.71 µM | 18.9 µM | 3.85 µM | 0.4 µM | 1.11 µM | 3.4 µM | 2.41 µM | 6.76 µM
11 | Cc1[nH]nc(C(=O)N/N=C/c2cccs2)c1N=NN(C)C | 52.7 µM | 25.9 µM | > 100 µM | 28.2 µM | > 100 µM | > 100 µM | > 100 µM | 37.1 µM | 45.2 µM | 27.6 µM | – | – | – | – | – | – | – | – | – | –
12 | Cc1cc(I)cc(CN(C)CCCCN2CCCC2)c1O | > 100 µM | 38.9 µM | > 100 µM | 26.1 µM | > 100 µM | 24.2 µM | > 100 µM | 55.7 µM | 28.6 µM | 96.1 µM | 30.7 µM | 17.5 µM | 31.3 µM | 13.4 µM | 34.8 µM | 11.3 µM | 33.5 µM | 18.1 µM | 13.2 µM | 27.8 µM
13 | O=C(/C=C/c1cccs1)Nc1ncc(Cc2ccccc2F)s1 | > 100 µM | > 100 µM | > 100 µM | 26.9 µM | > 100 µM | > 100 µM | 0.671 µM | > 100 µM | > 100 µM | > 100 µM | 0.48 µM | 0.0753 µM | 0.254 µM | 0.325 µM | 0.412 µM | 0.0749 µM | 0.216 µM | 0.757 µM | 0.244 µM | 0.361 µM
14 | Clc1cccc(C2SCc3nc4ccccc4n32)c1Cl (stereo not drawn) | 41.9 µM | 34.1 µM | 48.2 µM | 36 µM | 30.8 µM | 45 µM | 33.7 µM | 36.5 µM | 30.4 µM | 33.1 µM | – | – | – | – | – | – | – | – | – | –
15 | CCc1ccc(/C=C2/SC(=S)NC2=O)cc1 | > 80.2 µM | > 81.5 µM | > 80.4 µM | 33.7 µM | 73.2 µM | > 100 µM | 35.3 µM | > 100 µM | 56.8 µM | > 90.3 µM | 20.8 µM | 24 µM | 22.6 µM | 18.3 µM | 21.9 µM | 29.3 µM | 16.9 µM | 24.5 µM | 18.2 µM | 20.3 µM
16 | COc1cc(Nc2ncc(-c3ccccc3)o2)cc(OC)c1OC | > 25 µM | > 25 µM | > 25 µM | > 25 µM | > 25 µM | > 25 µM | 24.9 µM | > 25 µM | > 25 µM | > 25 µM | 1.66 µM | 0.37 µM | 7.32 µM | 2.15 µM | > 6.86 µM | 0.401 µM | 3.94 µM | 4.73 µM | 2.7 µM | 12.6 µM
17 | NC(=NC1C2CC3CC(C2)CC1C3)Nc1ccc(I)cc1 (stereo not drawn) | 14.2 µM | 13.1 µM | > 100 µM | 2.64 µM | 14.3 µM | 15.7 µM | 15 µM | 17.8 µM | 6.75 µM | 16.6 µM | 3.44 µM | 3.29 µM | 3.43 µM | 1 µM | 3.43 µM | 3.29 µM | 3.97 µM | 4.52 µM | 2.51 µM | 4.35 µM
18 | O=C(O)CNS(=O)(=O)c1ccc(NC(=O)c2cccc([N+](=O)[O-])c2)cc1 | > 100 µM | > 100 µM | > 100 µM | > 100 µM | > 100 µM | > 100 µM | > 100 µM | > 100 µM | > 100 µM | > 100 µM | – | – | – | – | – | – | – | – | – | –
19 | CC(Cl)CC(=O)Nc1ccc2c(c1)oc(=O)c1cc(NC(=O)CC(C)Cl)ccc12 (stereo not drawn) | 22.2 µM | > 100 µM | 29 µM | > 100 µM | 88 µM | 33.6 µM | 31.1 µM | 33.3 µM | 36.5 µM | 69.7 µM | 8 µM | 19.7 µM | 11.1 µM | 14.4 µM | 27 µM | 13.8 µM | 14.3 µM | 10.1 µM | 10.1 µM | 20.4 µM
20 | CCn1cc(C2NC(=O)c3cc(F)ccc3N2)c2cccc(Cl)c21 (stereo not drawn) | > 100 µM | > 100 µM | > 50.3 µM | – | > 100 µM | > 100 µM | 0.596 µM | > 100 µM | > 58.3 µM | > 100 µM | 0.364 µM | 0.196 µM | 0.172 µM | 0.349 µM | 0.461 µM | 0.0414 µM | 0.1 µM | 1.92 µM | 0.1 µM | 0.382 µM
21 | N#CC(/C(=N\NC(N)=S)C(=O)NC1C2CC3CC(C2)CC1C3)c1ccc(Cl)cc1 (stereo not drawn) | > 100 µM | > 100 µM | > 100 µM | > 100 µM | > 100 µM | > 100 µM | > 100 µM | > 100 µM | > 100 µM | > 100 µM | – | – | – | – | – | – | – | – | – | –
22 | COCCOC(=O)CCn1cc(F)c(=O)[nH]c1=O | > 150 µg/mL | > 150 µg/mL | > 150 µg/mL | > 150 µg/mL | > 150 µg/mL | > 150 µg/mL | > 150 µg/mL | > 150 µg/mL | > 150 µg/mL | > 150 µg/mL | 1.79 µg/mL | 4.07 µg/mL | 16 µg/mL | 4.75 µg/mL | 57.8 µg/mL | 21.3 µg/mL | 5.79 µg/mL | 102 µg/mL | 33.2 µg/mL | 41.6 µg/mL
23 | O=C(N/N=C\c1cc(Cl)ccc1O)N/N=C/c1cc(Cl)ccc1O | > 100 µM | > 100 µM | > 100 µM | > 100 µM | > 100 µM | > 100 µM | > 100 µM | > 100 µM | > 100 µM | > 100 µM | 0.521 µM | 3.36 µM | 2.51 µM | 4.92 µM | 7.83 µM | 0.572 µM | 2.12 µM | 9.74 µM | 2.37 µM | > 100 µM
